Laboratory results: ChEMBL document CHEMBL3784936, “Classification of matching molecular series on the basis of SAR phenotypes and structural relationships” (Medchemcomm, 2016)

Assays:
Oxytocin receptor = biological target: T1, Oxytocin receptor (Homo sapiens, UniProt P30559); assay: Inhibition of oxytocin receptor (unknown origin)
T1 sequence (P30559 whole entry): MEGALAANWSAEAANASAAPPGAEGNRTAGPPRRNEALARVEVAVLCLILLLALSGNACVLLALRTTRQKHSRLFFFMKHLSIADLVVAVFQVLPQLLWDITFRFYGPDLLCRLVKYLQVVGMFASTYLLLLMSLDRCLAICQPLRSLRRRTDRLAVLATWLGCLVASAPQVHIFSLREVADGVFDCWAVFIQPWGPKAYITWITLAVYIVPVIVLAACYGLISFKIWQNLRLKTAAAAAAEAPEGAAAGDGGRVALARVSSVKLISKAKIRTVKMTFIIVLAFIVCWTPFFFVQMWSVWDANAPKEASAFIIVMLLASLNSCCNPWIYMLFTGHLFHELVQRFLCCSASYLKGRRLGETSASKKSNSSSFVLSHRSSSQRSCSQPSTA

Adenosine receptor A3 = biological target: T2, Adenosine receptor A3 (Homo sapiens, UniProt P0DMS8); assay: Inhibition of adenosine A3 receptor (unknown origin)
T2 sequence (P0DMS8 whole entry): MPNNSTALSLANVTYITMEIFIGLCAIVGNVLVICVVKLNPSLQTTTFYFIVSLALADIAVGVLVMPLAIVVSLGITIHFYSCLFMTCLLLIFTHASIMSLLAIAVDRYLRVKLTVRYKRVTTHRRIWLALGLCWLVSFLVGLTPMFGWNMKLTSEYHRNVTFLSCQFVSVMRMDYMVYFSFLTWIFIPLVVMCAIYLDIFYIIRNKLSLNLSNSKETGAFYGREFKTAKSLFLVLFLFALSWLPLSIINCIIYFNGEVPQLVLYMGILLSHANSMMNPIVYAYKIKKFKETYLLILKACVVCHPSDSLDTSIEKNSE

Compound | Ki (Oxytocin receptor) | Ki (Adenosine receptor A3)
CCCCOc1ccc(S(=O)(=O)N(CC(=O)N/N=C2\C(=O)Nc3ccccc32)c2ccc(Cl)cc2)cc1 | 17.8 nM | –
Nc1ncnc2c1ncn2[C@@H]1O[C@H](C(=O)NC2CC2)[C@@H](O)[C@H]1O | – | 178 nM
